Where two headings read alike, the source gives them in different places.
Tests used:
Colletotricum lagenarium = assay: Cucumber Anthracnose greenhouse one-day protectant test; format: in vivo; conditions: Cucumis sativus, 24 h, read-out: COLLLA percent control rating
Erysiphe cichoracaerum = assay: Cucumber Powdery Mildew greenhouse one-day protectant test; format: in vivo; conditions: 24 h, read-out: ERYSCI percent control rating
Leptosphaeria nodorum = assay: Glume Blotch of Wheat greenhouse one-day protectant test; format: in vivo; conditions: Parastagonospora nodorum, 24 h, read-out: LEPTNO percent control rating
Phytophthora infestans = assay: whole plant or invertebrate; format: in vivo; conditions: in Solanum lycopersicum, 24 h, read-out: PHYTIN percent control rating, tomato plants, one-day protectant test, 200 ppm application rate
[1] = test system: Puccinia recondita tritici; assay: Leaf Rust of Wheat greenhouse one-day protectant test; format: in vivo; conditions: 24 h, read-out: PUCCRT percent control rating
Pyricularia oryzae = assay: whole plant or invertebrate; format: in vivo; conditions: 24 h, read-out: PYRIOR percent control rating
[2] = cucumber plants, one-day protectant test, 200 ppm application rate
[3] = wheat plants, one-day protectant test, 200 ppm application rate

Row | SMILES | pest or weed control at 200 ppm (Colletotricum lagenarium; [2]) [%] | pest or weed control at 200 ppm (Erysiphe cichoracaerum; [2]) [%] | pest or weed control at 200 ppm (Leptosphaeria nodorum; [3]) [%] | pest or weed control at 200 ppm (Phytophthora infestans) [%] | pest or weed control at 200 ppm [1, 3] [%] | pest or weed control at 200 ppm (Pyricularia oryzae) [%] | melting point [°C] | pest or weed control at 200 ppm (Colletotricum lagenarium) [%] | pest or weed control at 200 ppm (Erysiphe cichoracaerum) [%] | pest or weed control at 200 ppm (Leptosphaeria nodorum) [%] | pest or weed control at 200 ppm [1] [%]
1 | O=c1cnc(-c2csc(-c3ccccc3)c2)nn1CC(F)(F)F [Compound 79] | 50 to 79 | 0 to 49 | 80 to 100 | 0 to 49 | 80 to 100 | 80 to 100 |  |  |  |  | 
2 | O=c1cnc(-c2cc(-c3ccsc3)cc(-c3ccsc3)c2)nn1CC(F)(F)F [Compound 80, 3-(3,5-dithien-3-ylphenyl)-1-(2,2,2-trifluoroethyl)-1,2,4-triazin-6(1H)-one] | 0 to 49 | 0 to 49 | 0 to 49 | 0 to 49 | 50 to 79 | 80 to 100 | 189 to 191 |  |  |  | 
3 | CCCCn1nc(-c2cc(-c3ccsc3)cc(-c3ccsc3)c2)ncc1=O [Compound 81] | 0 to 49 | 0 to 49 | 80 to 100 | 0 to 49 | 0 to 49 | 0 to 49 |  |  |  |  | 
4 | O=c1cnc(-c2cc(Br)cc(-c3ccsc3)c2)nn1Cc1ccccc1 [Compound 82] | 0 to 49 | 0 to 49 | 80 to 100 | 0 to 49 | 0 to 49 | 50 to 79 |  |  |  |  | 
5 | O=c1cnc(-c2cc(Br)cc(-c3ccsc3)c2)nn1CCc1ccccc1 [Compound 83] | 0 to 49 | 0 to 49 | 50 to 79 | 0 to 49 | 0 to 49 | 0 to 49 |  |  |  |  | 
6 | Cc1cc(C)cc(-c2ncc(=O)n(Cc3c(F)c(F)c(F)c(F)c3F)n2)c1 [Compound 85] | 80 to 100 | 0 to 49 | 80 to 100 | 0 to 49 | 80 to 100 | 80 to 100 |  |  |  |  | 
7 | Cc1cc(C)cc(-c2ncc(=O)n(CCOc3ccccc3)n2)c1 [Compound 86] | 80 to 100 | 0 to 49 | 80 to 100 | 0 to 49 | 80 to 100 | 80 to 100 |  |  |  |  | 
8 | O=c1cnc(-c2cc(Cl)cc(Cl)c2)nn1CCOc1ccccc1 [Compound 87] | 0 to 49 | 0 to 49 | 0 to 49 | 0 to 49 | 0 to 49 | 0 to 49 |  |  |  |  | 
9 | O=c1cnc(-c2ccc(-c3ccc(Cl)s3)nc2)nn1CC(F)(F)F [Compound 88] | 0 to 49 | 0 to 49 | 50 to 79 | 0 to 49 | 0 to 49 | 0 to 49 |  |  |  |  | 
10 | O=c1cnc(-c2cccc(/C=C\c3ccccc3)c2)nn1CC(F)(F)F [Compound 89] |  |  |  | 0 to 49 |  | 80 to 100 |  | 50 to 79 | 0 to 49 | 80 to 100 | 80 to 100
11 | O=c1cnc(-c2cccc(CC3=CCc4ccccc43)c2)nn1CC(F)(F)F [Compound 90] | 0 to 49 | 0 to 49 | 50 to 79 | 0 to 49 | 50 to 79 | 80 to 100 |  |  |  |  | 
12 | O=c1cnc(-c2cccc(C#Cc3ccccc3)c2)nn1CC(F)(F)F [Compound 92] | 80 to 100 | 0 to 49 | 50 to 79 | 50 to 79 | 80 to 100 | 80 to 100 |  |  |  |  | 
13 | O=c1cnc(-c2ccc(F)c(Br)c2)nn1Cc1ccc(Cl)nc1 [Compound 97, (3-bromo-4-fluoro-phenyl)-1-(6-chloro-pyridin-3-ylmethyl)-1H-[1,2,4]triazin-6-one] | 50 to 79 | 0 to 49 | 80 to 100 | 0 to 49 | 80 to 100 | 80 to 100 |  |  |  |  | 

— patent US7473669B2, “Substituted 4,5-dihydro-1,2,4-triazin-6-ones, 1,2,4-triazin-6-ones, and their use as fungicides” (priority 2005, dated 2009)
